Source: PMC8835733, “PaOctβ2R: Identification and Functional Characterization of an Octopamine Receptor Activating Adenylyl Cyclase Activity in the American Cockroach Periplaneta americana” (International Journal of Molecular Sciences, 2022)
“And” between values parts separate entries of the source, which are not always exact repeats. Identical values can stand only once. Like-named read-outs stand apart in the source and are kept apart here.

Assays:
[1] = system: PaOctβ2R-HA; test: Antagonist inhibition of tyramine-activated PaOctβ2R-HA (cAMP via CNG channel / Fluo-4); type: cell-based, Periplaneta americana; conditions: 1 × 10^−7 M tyramine; for Maximal Inhibition of tyramine-activated PaOctβ2R-HA activity: 1 × 10^−4 M IBMX
Procedure: (§1) The reduction of cellular cAMP production, monitored as a decrease in Fluo-4 fluorescence (see Section 4.9), was quantified and normalized to the value obtained without adding antagonists (=100%). Normalized data were used to construct inhibitor concentration-response curves.
(§2) Ligand concentrations that led to half-maximal inhibition of PaOctβ2R-HA (IC50) were determined from the concentration-response curves.
(§3) A stably transfected cell line was established to examine PaOctβ2R-HA receptor activity by Ca^2+ imaging. Control measurements were performed in the parental (flpTM) cell line. Changes in [cAMP]i were registered indirectly via co-expressed CNG channels that are opened by cAMP and cause an influx of extracellular Ca^2+ [18, 26, 91]. Changes in [Ca^2+]i were monitored with the Ca^2+-sensitive fluorescent dye Fluo-4. Cells were grown in 96-well dishes to a density of approximately 2 × 10^4 cells per well and were loaded at room temperature with Fluo-4 AM as described previously. After 90 min, the loading solution was substituted for dye-free extracellular solution (ECS; 120 mM NaCl, 5 mM KCl, 2 mM MgCl2, 2 mM CaCl2, 10 mM HEPES, and 10 mM glucose, pH 7.4 (NaOH)) containing 100 µM 3-isobutyl-1-methylxanthine (IBMX; Sigma-Aldrich/Merck, Darmstadt, Germany) as an inhibitor of cell-endogenous phosphodiesterases. The plate was transferred into a fluorescence reader (FLUOstar Omega, BMG Labtech, Ortenberg, Germany) to monitor Fluo-4 fluorescence. The excitation wavelength was 485 nm. Fluorescence emission was detected at 520 nm. Concentration series of various biogenic amines and synthetic receptor ligands were added once Fluo-4 fluorescence had reached a stable value in each well. The changes in Fluo-4 fluorescence were recorded automatically. Concentration-response curves were established from at least three independent experiments. Data points were derived from four-fold or eightfold determination.

[2] = system: PaOctβ2R-HA; test: Antagonist inhibition of octopamine-activated PaOctβ2R-HA (cAMP via CNG channel / Fluo-4); type: cell-based, Periplaneta americana; conditions: 1 × 10^−9 M octopamine; for Maximal Inhibition of octopamine-activated PaOctβ2R-HA activity: 1 × 10^−4 M IBMX
Procedure: as §1, §2, §3

[3] = system: PaOctβ2R-HA; test: Agonist-evoked cAMP production in PaOctβ2R-HA-expressing flpTM cells (CNG channel / Fluo-4 Ca2+ imaging); type: cell-based, Periplaneta americana; conditions: for increase in [cAMP]i in PaOctβ2R-HA-expressing cells: biogenic amines at 0.1 and 1 µM; for increase in [cAMP]i in PaOctβ2R-HA-expressing cells / concentration at which the concentration-response curve saturated: 100 µM IBMX; for concentration at which the concentration-response curve saturated: flpTM + PaOctβ2R-HA cells
Description: (§4) These insect receptors are preferentially activated by octopamine and to a certain extent by tyramine as well. In a first series of experiments, we thus examined the ability of different biogenic amines, i.e., octopamine, tyramine, dopamine, histamine, and serotonin, to evoke PaOctβ2R-HA-dependent cAMP production in receptor-expressing as well as in the parental (flpTM) cell line. Increasing [cAMP]i cause opening of the CNG channels and influx of extracellular Ca^2+ which was detected by the Ca^2+-sensitive dye FLUO-4.
(§5) In a next step, concentration series of octopamine and tyramine ranging from 10^−12 M to 10^−7 M for octopamine and 10^−11 M to 10^−6 M for tyramine were applied to the cell lines. The fluorescence signals were normalized to values obtained in flpTM + PaOctβ2R-HA cells with the highest ligand concentration (=100%) and used to calculate concentration response curves for the receptor (Figure 6; Table 1).
(§6) Cells were transfected with 10 µg of the pcPaOctβ2R-HA construct by a modified calcium phosphate method following a previously established protocol. Transfected cells were selected in the presence of the antibiotics G418 (1 mg/mL) and hygromycin (100 µg/mL).
as §3

[4] = molecular target: (UniProt Z9G3U5DLY1); test: as above; type: cell-based, Periplaneta americana; conditions: 100 µM IBMX
Description: as §4, §5, §6, §3

[5] = system: flpTM cells; test: Control measurements in parental (non-transfected) flpTM cells (cAMP via CNG channel / Fluo-4); type: cell-based, human; conditions: concentration series of octopamine or tyramine; 100 µM IBMX
Description: as §4, with “FLUO-4. No stimulation of adenylyl cyclase activity was recorded in flpTM cells when incubated with 0.1 or 1 µM concentrations of biogenic amines (Figure 5A). […]” for “FLUO-4.”
A stably transfected cell line was established to examine PaOctβ2R-HA receptor activity by Ca^2+ imaging. […] Changes in [Ca^2+]i were monitored with the Ca^2+-sensitive fluorescent dye Fluo-4. […] The plate was transferred into a fluorescence reader (FLUOstar Omega, BMG Labtech, Ortenberg, Germany) to monitor Fluo-4 fluorescence. […] Fluorescence emission was detected at 520 nm. Concentration series of various biogenic amines and synthetic receptor ligands were added once Fluo-4 fluorescence had reached a stable value in each well. The changes in Fluo-4 fluorescence were recorded automatically. […]

[6] = molecular target: (UniProt Z9G3U5DLY1); test: Antagonist inhibition of tyramine-activated PaOctβ2R-HA (cAMP via CNG channel / Fluo-4); type: cell-based, Periplaneta americana; conditions: 1 × 10^−7 M tyramine, 1 × 10^−4 M IBMX
Procedure: as §1, §2, §3

[7] = molecular target: (UniProt Z9G3U5DLY1); test: Antagonist inhibition of octopamine-activated PaOctβ2R-HA (cAMP via CNG channel / Fluo-4); type: cell-based, Periplaneta americana; conditions: 1 × 10^−9 M octopamine, 1 × 10^−4 M IBMX
Procedure: as §1, §2, §3

[8] = mean of n = 5 experiments, flpTM + PaOctβ2R-HA cells, read-out: EC50, mean value for half-maximal stimulation of PaOctβ2R-HA
[9] = mean of n = 5 experiments, flpTM + PaOctβ2R-HA cells, read-out: pEC50 ± SD, half-maximal stimulation of PaOctβ2R-HA (converted)
[10] = single representative eight-fold determination, read-out: EC50, half maximal activation of PaOctβ2R-HA (representative experiment, Figure 6)
[11] = read-out: IC50, half-maximal inhibition of tyramine-activated PaOctβ2R-HA
[12] = read-out: pIC50 ± SD, tyramine-activated PaOctβ2R-HA (converted)
[13] = read-out: IC50, half-maximal inhibition of octopamine-activated PaOctβ2R-HA
[14] = read-out: pIC50 ± SD, octopamine-activated PaOctβ2R-HA (converted)

For `CCCN(CCC)C1CCc2cccc(O)c2C1` (centres unmarked) [8-OH-DPAT, 8-hydroxy-2-(dipropylamino)tetralin], the “effect on tyramine-stimulated PaOctβ2R-HA activity (in words)” value [1] was “did not impair” and the “effect on octopamine-stimulated PaOctβ2R-HA activity (in words)” value [2] was “did not impair”.

With `NCCc1c[nH]cn1` [histamine] the “increase in [cAMP]i in PaOctβ2R-HA-expressing cells” value (“increase in [cAMP]i” for short) [3] was “Neither dopamine, histamine nor serotonin caused an increase in [cAMP]i”.

For `COc1ccc2[nH]cc(CCN)c2c1` [5-MT, 5-methoxytryptamine], the “effect on tyramine-stimulated PaOctβ2R-HA activity (in words)” value [1] was “did not impair” and the “effect on octopamine-stimulated PaOctβ2R-HA activity (in words)” value [2] was “did not impair”.

In the case of `NCC(O)c1ccc(O)cc1` (centres unmarked) [octopamine], the EC50 [4, 8] is reported as 0.467 nM, the EC50 [4, 9] is reported as 0.447 nM and the EC50 [4, 10] is reported as 0.297 nM. The “increase in [cAMP]i” value [3] was “showed increasing [cAMP]i”, the “concentration at which the concentration-response curve saturated” value [3] was ≥ 10^−9 M and the “preference (selectivity) of PaOctβ2R-HA for octopamine over tyramine” value ([3]; octopamine vs tyramine potency) was 100 fold and ~ 100 fold. For the same molecule, the “change in the fluorescence signal in non-transfected flpTM cells” value [5] was “no change in the fluorescence signal was observed”.

For `NCCc1ccc(O)c(O)c1` [dopamine], the “increase in [cAMP]i” value [3] was “Neither dopamine, histamine nor serotonin caused an increase in [cAMP]i”.

In the case of `O=C(c1ccc(F)cc1)C1CCN(CCn2c(=O)[nH]c3ccccc3c2=O)CC1` [ketanserin], the IC50 [6, 11] is reported as 1680 nM, the IC50 [6, 12] is reported as 1710 nM and the “Maximal Inhibition of tyramine-activated PaOctβ2R-HA activity” value [1] is reported as 50%. The IC50 [7, 13] was 5120 nM, the IC50 [7, 14] was 5120 nM and the “Maximal Inhibition of octopamine-activated PaOctβ2R-HA activity” value [2] was 80%. The “Maximal Inhibition of octopamine-activated PaOctβ2R-HA activity” value ([2]; listed as Ketanserin) was “approximately 80%”.

`NCCc1c[nH]c2ccc(O)cc12` [serotonin, 5-hydroxytryptamine] was tested, and the “increase in [cAMP]i” value [3] was “Neither dopamine, histamine nor serotonin caused an increase in [cAMP]i”.

Molecule `NCCc1ccc(O)cc1` [tyramine] has an EC50 [4, 8] of 43 nM, an EC50 [4, 9] of 40.7 nM and an EC50 [4, 10] of 36.8 nM. The “increase in [cAMP]i” value [3] was “showed increasing [cAMP]i”, the “concentration at which the concentration-response curve saturated” value [3] was ≥ 10^−7 M and the “change in the fluorescence signal in non-transfected flpTM cells” value [5] was “no change in the fluorescence signal was observed”.

In the case of `COC(=O)[C@@H]1[C@H]2C[C@H]3c4[nH]c5ccccc5c4CCN3C[C@@H]2CC[C@@H]1O` [yohimbine], the “effect on tyramine-stimulated PaOctβ2R-HA activity (in words)” value [1] is reported as “did not impair” and the “effect on octopamine-stimulated PaOctβ2R-HA activity (in words)” value [2] is reported as “did not impair”.

In the case of `NC1=NCC2c3ccccc3Cc3ccccc3N12` (centres unmarked) [epinastine], the IC50 [6, 11] is reported as ~13 nM and 13 nM, the IC50 [6, 12] is reported as 11.2 nM and the “Maximal Inhibition of tyramine-activated PaOctβ2R-HA activity” value [1] is reported as 100%. For the same molecule, the IC50 [7, 13] was ~12 nM and 12 nM, the IC50 [7, 14] was 11.4 nM and the “Maximal Inhibition of octopamine-activated PaOctβ2R-HA activity” value [2] was 100%.

`Cc1ccc(N(CC2=NCCN2)c2cccc(O)c2)cc1` [phentolamine] was tested, and the IC50 [6, 11] was 256 nM, the IC50 [6, 12] was 255 nM and the “Maximal Inhibition of tyramine-activated PaOctβ2R-HA activity” value [1] was 100%. For the same molecule, the IC50 [7, 13] was 257 nM, the IC50 [7, 14] was 247 nM and the “Maximal Inhibition of octopamine-activated PaOctβ2R-HA activity” value [2] was 100%.
